Measured values published in US20240418701A1, “SINGLE MOLECULE IDEN[…] A REACTIVE HETERO-NANOPORE” (priority 2021, published 2024).
Read-outs that look alike come from different tables or passages of the source.

Assays:
M2 MspA = M2 MspA (Mycolicibacterium smegmatis, UniProt A0QR29, D117N/D118N/D120N/D145R/D161R/E166K); assay: NMP sensing performed with M2 MspA (control without PBA); format: binding, Mycobacterium smegmatis; settings: NMP 1 mM in cis, +200 mV
Protocol: FIG. 44: NMP sensing performed with M2 MspA. (a-d) Representative traces of (a) CMP, (b) UMP, (c) AMP, (d) GMP sensing performed with M2 MspA. All measurements were carried out as described in Methods in Example 2 in a 1.5 M KCl buffer (1.5 M KCl, 10 mM MOPS, pH 7.0). A +200 mV bias was continually applied. NMPs were added to cis with a final concentration of 1 mM for each analyte.
(§1) NMPs consist of a ribose, a phosphate group and a nucleobase, serving as monomeric units of RNA. […] Experimentally, single channel recording was performed using MspA-PBA in a 1.5 M KCl buffer (1.5 M KCl, 10 mM MOPS, pH 7.0) (Methods in Example 2). A transmembrane potential of +200 mV was continually applied. Four canonical NMPs, adenine mononucleotide (AMP), guanine mononucleotide (GMP), cytosine mononucleotide (CMP) and uracil mononucleotide (UMP) were tested as analytes (FIG. 33d). Either type of NMP was added to cis at a final concentration of 300 μM. Subsequently, successive resistive pulses caused by either type of NMP were immediately observed (FIG. 33d). However, no events were observed when M2 MspA was tested, confirming that the PBA located at the pore constriction is critical in the generation of NMP sensing events (FIG. 44). At this condition, ˜1800 events/h were obtained from each pore. The pore could normally withstand a few hours of continuous measurement. Deoxyribonucleoside monophosphate (dNMP) fails to report any event when sensed by MspA-PBA (FIG. 45). This is expected because dNMPs have no cis-diol structure and can't form the boronate ester which is necessary for sensing. The molecular mechanism of sensing which results from reversible covalent bond formation between an NMP and the PBA at the pore constriction is thus confirmed.

[1] = molecular target: T1, MspA-PBA (phenylboronic acid modified hetero-octameric (N90C)1(M2)7 MspA) (Mycolicibacterium smegmatis, UniProt A0QR29, D117C/D118N/D120N/D145R/D161R/E166K); format: binding, Mycobacterium smegmatis; settings: +200 mV; for 1/τoff / 1/τon / Calibration coefficient δ (NMP binding events per unit concentration per min): three independent measurements; for % Ib (percentage blockage) / S.D. (noise amplitude of blockage level) / τoff (mean dwell time) / τon (mean inter-event interval): N=3; for Calibration coefficient δ (NMP binding events per unit concentration per min): sole NMP 300 μM in cis
T1 construct: H6 (hexa-histidine) (C); 3-(maleimide) phenylboronic acid (MPBA) adduct on the thiol of Cys90; made in house; host or cells: E. coli BL21 (DE3) pLysS, co-expression from pETDuet-1
Protocol: FIG. 46: Definition of event parameters. […] The measurement was carried out as described in Methods in Example 2. The chambers were filled with a 1.5 M KCl buffer (1.5 M KCl, 10 mM MOPS, pH 7.0). A transmembrane potential of +200 mV was continually applied. AMP was added to cis with a final concentration of 300 μM. The open pore current (Ip), the residual current (Ib), the dwell time (τoff) and the inter-event duration (τon) are defined as marked on the trace. The percentage blockage (% Ib) is defined as (Ip−Ib)/Ip. The noise amplitude (S.D.) is defined as the standard deviation of the blockage level.
as §1
To describe NMP sensing events quantitatively, the event dwell time (τoff), the inter-event interval (τon), the percentage blockage (% Ib=(Ip−Ib)/Ip) and the noise amplitude (S.D.) were derived as described in FIG. 46. Generally, the histograms of τoff and τon show an exponential distribution, and could be fitted to derive the mean time constants τoff or τon, respectively. The histograms of % Ib and S.D. show a Gaussian distribution, which could be fitted to derive the mean percentage blockage % Ib and S.D., respectively. During NMP sensing, by varying the NMP concentrations in cis, the reciprocal of dwell time (1/τoff) remains constant, consistent with a unimolecular dissociation mechanism. Whereas the reciprocal of the inter-event interval (1/τon) linearly correlates with the NMP concentration in cis (Tables 8-11, FIG. 47-50), consistent with a bimolecular model. The dependence of the applied voltage during NMP sensing was investigated using AMP as a representative analyte. […] This is expected because in a pH 7.0 buffer, the phosphate group of NMP is negatively charged and the electrophoretic force applied on the NMP analyte can strongly regulate the rate of event appearance and the event dwell time.

Sequence of M2 MspA (A0QR29 28-211 D117N/D118N/D120N/D145R/D161R/E166K): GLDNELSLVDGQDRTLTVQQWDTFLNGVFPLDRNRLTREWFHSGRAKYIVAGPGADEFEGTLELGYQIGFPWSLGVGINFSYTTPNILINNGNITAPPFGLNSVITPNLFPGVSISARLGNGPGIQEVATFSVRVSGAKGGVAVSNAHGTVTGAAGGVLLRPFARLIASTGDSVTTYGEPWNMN

**Q.** What does the source list for `Nc1ccn([C@@H]2O[C@H](COP(=O)(O)O)[C@@H](O)[C@H]2O)c(=O)n1` [CMP, Cytidine-5′-monophosphate]?
**A.** binding events with M2 MspA (M2 MspA): No binding events were observed; 1/τoff ([1]; NMP 100 μM in cis): 19.0 ± 1.9 s⁻¹; 1/τon ([1]; NMP 100 μM in cis): 0.30 ± 0.06 s⁻¹; 1/τoff ([1]; NMP 200 μM in cis): 20.9 ± 0.3 s⁻¹; 1/τon ([1]; NMP 200 μM in cis): 0.47 ± 0.05 s⁻¹; % Ib (percentage blockage) ([1]; NMP 300 μM in cis): 7.1±0.2%; S.D. (noise amplitude of blockage level) ([1]; NMP 300 μM in cis): 3.23 ± 0.09 pA; τoff (mean dwell time) ([1]; NMP 300 μM in cis): 47.6 ± 0.9 ms; τon (mean inter-event interval) ([1]; NMP 300 μM in cis): 1511.6 ± 108.3 ms; % Ib (percentage blockage) ([1]; NMP 300 μM in cis, listed as C): 7.1 ± 0.2%; 1/τoff ([1]; NMP 300 μM in cis): 21.0 ± 0.4 s⁻¹; 1/τon ([1]; NMP 300 μM in cis): 0.66 ± 0.05 s⁻¹; 1/τoff ([1]; NMP 400 μM in cis): 20.5 ± 0.6 s⁻¹; 1/τon ([1]; NMP 400 μM in cis): 0.86 ± 0.05 s⁻¹; 1/τoff ([1]; NMP 500 μM in cis): 20.6 ± 1.1 s⁻¹; 1/τon ([1]; NMP 500 μM in cis): 1.01 ± 0.13 s⁻¹; Calibration coefficient δ (NMP binding events per unit concentration per min) [1]: 0.133 ± 0.010 µM⁻¹ min⁻¹

**Q.** How did the “binding events with M2 MspA” value (M2 MspA) turn out when `Nc1nc2c(ncn2[C@@H]2O[C@H](COP(=O)(O)O)[C@@H](O)[C@H]2O)c(=O)[nH]1` [GMP, guanosine-5′-monophosphate] was run?
**A.** The value was “No binding events were observed”.

**Q.** What about the 1/τoff ([1]; NMP 100 μM in cis) of the same compound?
**A.** The 1/τoff was 11.5 ± 0.9 s⁻¹.

**Q.** What about the 1/τon ([1]; NMP 100 μM in cis) of the same compound?
**A.** The 1/τon was 0.02 ± 0.07 s⁻¹.

**Q.** What about the 1/τoff ([1]; NMP 200 μM in cis) of the same compound?
**A.** Its 1/τoff is 10.6 ± 1.4 s⁻¹.

**Q.** And the 1/τon ([1]; NMP 200 μM in cis)?
**A.** Its 1/τon is 0.50 ± 0.12 s⁻¹.

**Q.** What about the “% Ib (percentage blockage)” value ([1]; NMP 300 μM in cis) of the same compound?
**A.** Its value is 11.8±0.2%.

**Q.** What about the “S.D. (noise amplitude of blockage level)” value ([1]; NMP 300 μM in cis) of the same compound?
**A.** The value was 3.02 ± 0.13 pA.

**Q.** What about the “τoff (mean dwell time)” value ([1]; NMP 300 μM in cis) of the same compound?
**A.** Its value is 96.3 ± 10.4 ms.

**Q.** And the “τon (mean inter-event interval)” value ([1]; NMP 300 μM in cis)?
**A.** Its value is 1473.1 ± 44.4 ms.

**Q.** What about the “% Ib (percentage blockage)” value ([1]; NMP 300 μM in cis, listed as G) of the same compound?
**A.** The value was 11.8 ± 0.2%.

**Q.** And the 1/τoff ([1]; NMP 300 μM in cis)?
**A.** Its 1/τoff is 10.5 ± 1.1 s⁻¹.

**Q.** And the 1/τon ([1]; NMP 300 μM in cis)?
**A.** Its 1/τon is 0.68 ± 0.02 s⁻¹.

**Q.** What about the 1/τoff ([1]; NMP 400 μM in cis) of the same compound?
**A.** Its 1/τoff is 10.2 ± 0.2 s⁻¹.

**Q.** And the 1/τon ([1]; NMP 400 μM in cis)?
**A.** Its 1/τon is 0.83 ± 0.04 s⁻¹.

**Q.** What about the 1/τoff ([1]; NMP 500 μM in cis) of the same compound?
**A.** The 1/τoff was 11.4 ± 1.3 s⁻¹.

**Q.** What about the 1/τon ([1]; NMP 500 μM in cis) of the same compound?
**A.** Its 1/τon is 1.00 ± 0.04 s⁻¹.

**Q.** And the “Calibration coefficient δ (NMP binding events per unit concentration per min)” value [1]?
**A.** Its value is 0.136 ± 0.004 µM⁻¹ min⁻¹.

**Q.** For `O=c1ccn([C@@H]2O[C@H](COP(=O)(O)O)[C@@H](O)[C@H]2O)c(=O)[nH]1` [UMP, uridine-5′-monophosphate], which “binding events with M2 MspA” value (M2 MspA) is on record?
**A.** The value was “No binding events were observed”.

**Q.** And the 1/τoff ([1]; NMP 100 μM in cis)?
**A.** Its 1/τoff is 7.8 ± 0.9 s⁻¹.

**Q.** What about the 1/τon ([1]; NMP 100 μM in cis) of the same compound?
**A.** Its 1/τon is 0.28 ± 0.08 s⁻¹.

**Q.** What about the 1/τoff ([1]; NMP 200 μM in cis) of the same compound?
**A.** The 1/τoff was 7.4 ± 1.4 s⁻¹.

**Q.** And the 1/τon ([1]; NMP 200 μM in cis)?
**A.** The 1/τon was 0.36 ± 0.02 s⁻¹.

**Q.** And the “% Ib (percentage blockage)” value ([1]; NMP 300 μM in cis)?
**A.** The value was 8.64±0.09%.

**Q.** What about the “S.D. (noise amplitude of blockage level)” value ([1]; NMP 300 μM in cis) of the same compound?
**A.** Its value is 2.14 ± 0.06 pA.

**Q.** And the “τoff (mean dwell time)” value ([1]; NMP 300 μM in cis)?
**A.** Its value is 130.3 ± 14.8 ms.

**Q.** And the “τon (mean inter-event interval)” value ([1]; NMP 300 μM in cis)?
**A.** Its value is 2097.9 ± 474.7 ms.

**Q.** And the “% Ib (percentage blockage)” value ([1]; NMP 300 μM in cis, listed as U)?
**A.** The value was 8.64 ± 0.09%.

**Q.** What about the 1/τoff ([1]; NMP 300 μM in cis) of the same compound?
**A.** The 1/τoff was 7.7 ± 0.9 s⁻¹.

**Q.** And the 1/τon ([1]; NMP 300 μM in cis)?
**A.** Its 1/τon is 0.49 ± 0.08 s⁻¹.

**Q.** What about the 1/τoff ([1]; NMP 400 μM in cis) of the same compound?
**A.** Its 1/τoff is 8.2 ± 0.4 s⁻¹.

**Q.** What about the 1/τon ([1]; NMP 400 μM in cis) of the same compound?
**A.** The 1/τon was 0.56 ± 0.11 s⁻¹.

**Q.** What about the 1/τoff ([1]; NMP 500 μM in cis) of the same compound?
**A.** The 1/τoff was 8.7 ± 0.4 s⁻¹.

**Q.** What about the 1/τon ([1]; NMP 500 μM in cis) of the same compound?
**A.** Its 1/τon is 0.68 ± 0.09 s⁻¹.

**Q.** And the “Calibration coefficient δ (NMP binding events per unit concentration per min)” value [1]?
**A.** Its value is 0.097 ± 0.014 µM⁻¹ min⁻¹.
